Values of other authors in patent US20150284900A1, “Novel Activator for Hydrogen Peroxide and Its Application” (priority 2014, published 2015).

Settings: in water; room temperature (20° C.)

OO [Activator H2O2, Hydrogen peroxide]
ionization constant: 1.78×10^−12
